Data from patent US10760110B2, “Antibiotic testing and screening system” (priority 2017, dated 2020).
Read-outs that look alike come from different tables or passages of the source.

Columns and labels:
Conditions in all cases: Klebsiella pneumoniae
[1] = system: K. pneumoniae NVT1001 and its ΔompK35/36 and/or ΔramR mutants; assay: Etest MIC, OmpK35/36 loss and AcrAB-TolC overexpression (ΔramR) strains (Table 6); format: cell-based, Klebsiella pneumoniae
How it was run: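 MICs were read by Etest strip following the manufacturer's instructions, and values falling between standard two-fold dilutions were rounded up to the next two-fold step. Ceftazidime and cefotaxime were also tested by CLSI broth microdilution and interpreted against CLSI 2017 breakpoints; cephalothin used CLSI 2015 and moxifloxacin EUCAST 2017.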

[2] = system: K. pneumoniae NVT1001 ΔramRΔompK35/36 mutant and its revertants; assay: Etest MIC, ΔramRΔompK35/36 mutant and its revertants (Table 7); format: cell-based
[3] = system: K. pneumoniae NVT1001 strains with carbapenemase plasmids; assay: Etest MIC of β-lactams, OmpK35/36 loss, ΔramR and/or carbapenemase (Table 9); format: cell-based, Klebsiella pneumoniae
How it was run: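 Etest MICs, with values between standard dilutions rounded up to the next two-fold step, were measured in K. pneumoniae NVT1001 carrying PCR-cloned resistance genes on pACYC177 or pACYC184 plasmids. Interpretation used CLSI 2017 breakpoints, CLSI 2015 for cephalothin and EUCAST 2017 for moxifloxacin. For the blaOXA-48 strain, ceftazidime and cefotaxime were additionally tested by CLSI broth microdilution.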

Measured: MIC

CC(C)(O/N=C(\C(=O)N[C@@H]1C(=O)N2C(C(=O)[O-])=C(C[n+]3ccccc3)CS[C@H]12)c1csc(N)n1)C(=O)O [Ceftazidime]
16 µg/mL: [3]; KPC-2 on pACYC177, WT (NVT1001), read-out: MIC
2 µg/mL: [1]; ΔramR mutant | [1]; ΔramRΔ35, ΔramRΔompK35 mutant | [1]; ΔramRΔ35/36, ΔramRΔompK35/36 mutant | [1]; ΔramRΔ36, ΔramRΔompK36 mutant | [2]; ΔramRΔompK35/36::ompK35/36 revertant | [2]; ΔramRΔompK35/36::ompK35 revertant | [2]; ΔramRΔompK35/36::ompK36 revertant | [2]; ΔramRΔompK35/36 mutant | [3]; OXA-48 on pACYC177, Δ35/36 (ΔompK35/36 mutant) | [3]; OXA-48 on pACYC177, ΔramR mutant | [3]; OXA-48 on pACYC177, ΔramRΔ35 (ΔramRΔompK35 mutant) | [3]; OXA-48 on pACYC177, ΔramRΔ35/36 (ΔramRΔompK35/36 mutant) | [3]; OXA-48 on pACYC177, ΔramRΔ36 (ΔramRΔompK36 mutant) | [3]; no supplemental plasmid, ΔramR mutant | [3]; no supplemental plasmid, ΔramRΔ35 (ΔramRΔompK35 mutant) | [3]; no supplemental plasmid, ΔramRΔ35/36 (ΔramRΔompK35/36 mutant) | [3]; no supplemental plasmid, ΔramRΔ36 (ΔramRΔompK36 mutant)
256 µg/mL: [3]; KPC-2 on pACYC177, Δ35/36 (ΔompK35/36 mutant)
> 256 µg/mL: [3]; IMP-8 on pACYC177, WT (NVT1001), read-out: MIC | [3]; IMP-8 on pACYC177, Δ35 (ΔompK35 mutant) | [3]; IMP-8 on pACYC177, Δ35/36 (ΔompK35/36 mutant) | [3]; IMP-8 on pACYC177, Δ36 (ΔompK36 mutant) | [3]; IMP-8 on pACYC177, ΔramR mutant | [3]; IMP-8 on pACYC177, ΔramRΔ35 (ΔramRΔompK35 mutant) | [3]; IMP-8 on pACYC177, ΔramRΔ35/36 (ΔramRΔompK35/36 mutant) | [3]; IMP-8 on pACYC177, ΔramRΔ36 (ΔramRΔompK36 mutant) | [3]; KPC-3 on pACYC177, Δ35 (ΔompK35 mutant) | [3]; KPC-3 on pACYC177, Δ35/36 (ΔompK35/36 mutant) | [3]; KPC-3 on pACYC177, ΔramR mutant | [3]; KPC-3 on pACYC177, ΔramRΔ35 (ΔramRΔompK35 mutant) | [3]; KPC-3 on pACYC177, ΔramRΔ35/36 (ΔramRΔompK35/36 mutant) | [3]; KPC-3 on pACYC177, ΔramRΔ36 (ΔramRΔompK36 mutant) | [3]; NDM-1 on pACYC177, WT (NVT1001), read-out: MIC | [3]; NDM-1 on pACYC177, Δ35 (ΔompK35 mutant) | [3]; NDM-1 on pACYC177, Δ35/36 (ΔompK35/36 mutant) | [3]; NDM-1 on pACYC177, Δ36 (ΔompK36 mutant) | [3]; NDM-1 on pACYC177, ΔramR mutant | [3]; NDM-1 on pACYC177, ΔramRΔ35 (ΔramRΔompK35 mutant) | [3]; NDM-1 on pACYC177, ΔramRΔ35/36 (ΔramRΔompK35/36 mutant) | [3]; NDM-1 on pACYC177, ΔramRΔ36 (ΔramRΔompK36 mutant) | [3]; VIM-1 on pACYC177, WT (NVT1001), read-out: MIC | [3]; VIM-1 on pACYC177, Δ35 (ΔompK35 mutant) | [3]; VIM-1 on pACYC177, Δ35/36 (ΔompK35/36 mutant) | [3]; VIM-1 on pACYC177, Δ36 (ΔompK36 mutant) | [3]; VIM-1 on pACYC177, ΔramR mutant | [3]; VIM-1 on pACYC177, ΔramRΔ35 (ΔramRΔompK35 mutant) | [3]; VIM-1 on pACYC177, ΔramRΔ35/36 (ΔramRΔompK35/36 mutant) | [3]; VIM-1 on pACYC177, ΔramRΔ36 (ΔramRΔompK36 mutant)
64 µg/mL: [3]; KPC-2 on pACYC177, Δ35 (ΔompK35 mutant)
128 µg/mL: [3]; KPC-2 on pACYC177, ΔramR mutant | [3]; KPC-2 on pACYC177, ΔramRΔ35 (ΔramRΔompK35 mutant) | [3]; KPC-2 on pACYC177, ΔramRΔ35/36 (ΔramRΔompK35/36 mutant) | [3]; KPC-2 on pACYC177, ΔramRΔ36 (ΔramRΔompK36 mutant) | [3]; KPC-3 on pACYC177, WT (NVT1001), read-out: MIC | [3]; KPC-3 on pACYC177, Δ36 (ΔompK36 mutant)
0.5 µg/mL: [1]; Δ35, ΔompK35 mutant | [1]; Δ36, ΔompK36 mutant | [3]; OXA-48 on pACYC177, WT (NVT1001), read-out: MIC | [3]; OXA-48 on pACYC177, Δ36 (ΔompK36 mutant) | [3]; no supplemental plasmid, Δ35 (ΔompK35 mutant) | [3]; no supplemental plasmid, Δ36 (ΔompK36 mutant)
32 µg/mL: [3]; KPC-2 on pACYC177, Δ36 (ΔompK36 mutant)
1 µg/mL: [1]; Δ35/36, ΔompK35/36 mutant | [2]; ΔramRΔompK35/36::ramR revertant | [2]; ΔramRΔompK35/36::ramR::ompK36 revertant | [3]; OXA-48 on pACYC177, Δ35 (ΔompK35 mutant) | [3]; no supplemental plasmid, Δ35/36 (ΔompK35/36 mutant)
0.25 µg/mL: [1]; WT, NVT1001, read-out: MIC | [2]; ΔramRΔompK35/36::ramR::ompK35/36 revertant | [2]; ΔramRΔompK35/36::ramR::ompK35 revertant | [3]; no supplemental plasmid, WT (NVT1001), read-out: MIC
